Results from patent publication EP2338876A1, “Tamsulosin adipate for pharmaceutical use” (LEK Pharmaceuticals d.d., priority 2009, dated 2011).

Legend:
Type in all cases: physicochemical
[1] = Solubility in water, relative between solid forms; details: 60-100 ml of water per gram of the salt, room temperature; compared with anhydrous or amorphous tamsulosin adipate
Protocol: In another embodiment of the invention tamsulosin adipate dihydrate can be prepared also from water solutions from more soluble forms of tamsulosin adipate (anhydrous or amorphous). Depending on kinetic factors two polymorphs of tamsulosin adipate dihydrate can be obtained. In another embodiment tamsulosin adipate (anhydrous or amorphous) is dissolved in a small amount of water, preferably in 60-100 ml of water per gram of the salt, most preferably in 80-90 ml per gram, preferably at room temperature. Less soluble dihydrate spontaneously precipitates from the solution, yielding tamsulosin adipate dihydrate, characterized by the peaks at about 2θ= 10.2, 10.5, 13.5, 15.5, 16.3, 21.1, 21.9° 24.3, 25.2, 28.3 and 35.9° particularly characteristic peaks are 15.5, 21.9°, 28.3, and 35.9°.

[2] = Solid-state stability at ambient and at low relative humidity
Protocol: Tamsulosin adipate dihydrate from Example 9 (1.0 g), is stayed in an open dish in an airtight chamber at temperature of 25 °C and relative humidity of below 10 % (achieved by means of dry desiccant) for 3 days.

[3] = Solid-state stability at higher temperature
Protocol: Tamsulosin adipate dihydrate from Example 9 (1.0 g), is heated at 80 °C for 24 h to give a glassy solid which is crushed and homogenised.

[4] = Solubility in lower alcohols compared with tamsulosin hydrochloride; details: compared with commercially available tamsulosin hydrochloride
Text: The adipate forms of tamsulosin prepared according to the present invention have favourable solubility properties. […] This property could be an indicator for better interactions with less polar surfaces (e.g. lipid barriers) and allows more homogeneous preparation of pharmaceutical preparations in which tamsulosin should be homogenously mixed with lipophilic excipients (such as in preparation of transdermal dosage forms). The adipate anion has been shown physiologically acceptable. The tamsulosin adipate has therefore appropriate properties for smooth interaction with hydrophilic and lipophilic surfaces.

Row | SMILES | solubility in water relative to other forms [1] | stability in extremely dry conditions ([2]; below 20 % relative humidity, preferably below 10 %) | stability under normal ambient conditions ([2]; normal ambient conditions) | solid form after storage at low humidity (XRPD) ([2]; open dish, airtight chamber, 25 °C, relative humidity below 10 %, 3 days) | solid form after heating (XRPD) ([3]; 80 °C for 24 h) | stability at higher temperatures ([3]; preferably above 70 °C, most preferably above 80 °C) | solubility in lower alcohols [4]
1 | CCOc1ccccc1OCCN[C@H](C)Cc1ccc(OC)c(S(N)(=O)=O)c1 [Tamsulosin adipate dihydrate, tamsulosin adipate dihydrate form A] | Less soluble | loses water | stable | amorphous material | amorphous material with traces of anhydrous crystalline form | loses water | –
2 | CCOc1ccccc1OCCN[C@H](C)Cc1ccc(OC)c(S(N)(=O)=O)c1 [Tamsulosin adipate, tamsulosin adipate] | – | – | – | – | – | – | more soluble in lower alcohols, than the commercially available tamsulosin hydrochloride
